Results taken from PubChem BioAssay AID222 (DTP/NCI, 2004).
“And” between values parts separate entries of the source, which are not always exact repeats. Equal entries are not always repeated. Inconclusive results and toxic doses are left out. The calls were made as follows: active = survival T/C of 150% or more; inactive = T/C below 125% in these data. Starred links: 1 amine or outer side, 2 acyl side, 3 side chain; linkers in the order of their positions; H or OH if unused. Positions of bridges follow the written chain, without caps; N, C: chain ends. Non-standard residues stand in square brackets, D forms with d. Residues, ends and D or L forms follow the SMILES beside them. Chains are numbered I, II in the order given. Actinocin(1to9) = Cc1c2oc3c(C)ccc(C(=O)[*:2])c3nc-2c(C(=O)[*:1])c(N)c1=O; NMeV = CN[CH](C(=O)O)C(C)C; Aze = O=C(O)[CH]1CCN1; Sar = CNCC(=O)O

Test system: C57BL/6 mice, intracerebral ependymoblastoma, median survival T/C
Experiment: NCI In Vivo Anticancer Drug Screen. Data for tumor model Ependymoblastoma (intracerebral) in C57BL/6 mice
Settings: endpoint: median survival time, higher = longer survival
Method: The antitumor activity of compounds was measured in mice bearing transplantable tumors. Survival or tumor size were measured and the results are expressed as the measurement made in the treated group (T) divided by the measurement made in the vehicle treated control group (C). The tumor model used in this assay is Ependymoblastoma (intracerebral) in C57BL/6 mice

[1] = dose: 90.0 mg/kg/injection, schedule: Q01DX005 (ip), vehicle: saline with Tween-80
[2] = dose: 180.0 mg/kg/injection, schedule: Q01DX005 (ip), vehicle: saline with Tween-80
[3] = dose: 720.0 mg/kg/injection, schedule: Q01DX005 (ip), vehicle: saline with Tween-80

Measured: T/C

C[C@]1(O)CC[C@H]2[C@@H]3CCC4=CC(=O)CC[C@]4(C)[C@@]3(F)[C@@H](O)C[C@@]21C
inactive: dose: 8.0 mg/kg/injection, schedule: Q01DX005 (ip), vehicle: saline with Tween-80 94 % of control and 99 % of control | dose: 16.0 mg/kg/injection, schedule: Q01DX005 (ip), vehicle: saline with Tween-80 93 % of control and 104 % of control | dose: 32.0 mg/kg/injection, schedule: Q01DX005 (ip), vehicle: saline with Tween-80 102 % of control and 105 % of control | dose: 64.0 mg/kg/injection, schedule: Q01DX005 (ip), vehicle: saline with Tween-80 93 % of control and 96 % of control | dose: 128.0 mg/kg/injection, schedule: Q01DX005 (ip), vehicle: saline with Tween-80 93 % of control and 96 % of control | dose: 256.0 mg/kg/injection, schedule: Q01DX005 (ip), vehicle: saline with Tween-80 94 % of control and 100 % of control | dose: 512.0 mg/kg/injection, schedule: Q01DX005 (ip), vehicle: saline with Tween-80 93 % of control and 103 % of control

O=P1(NCCCl)OCCCN1CCCl (centres undefined)
inactive: dose: 6.25 mg/kg/injection, schedule: Q01DX005 (ip), vehicle: saline 122 % of control | dose: 12.5 mg/kg/injection, schedule: Q01DX005 (ip), vehicle: saline 110 % of control | dose: 25.0 mg/kg/injection, schedule: Q01DX005 (ip), vehicle: saline 114 % of control | dose: 25.0 mg/kg/injection, schedule: Q01DX005 (ip), vehicle: water 92 % of control and 117 % of control | dose: 50.0 mg/kg/injection, schedule: Q01DX001 (ip), vehicle: water 96 % of control | dose: 50.0 mg/kg/injection, schedule: Q01DX005 (ip), vehicle: water 90 % of control | dose: 100.0 mg/kg/injection, schedule: Q01DX001 (ip), vehicle: water 106 % of control | dose: 100.0 mg/kg/injection, schedule: Q01DX005 (ip), vehicle: water 106 % of control and 123 % of control | dose: 200.0 mg/kg/injection, schedule: Q01DX001 (ip), vehicle: water 119 % of control | dose: 200.0 mg/kg/injection, schedule: Q01DX005 (ip), vehicle: water 116 % of control

CC(=O)Nc1ccc(/C=N/NC(N)=S)cc1
inactive: dose: 45.0 mg/kg/injection, schedule: Q01DX005 (ip), vehicle: saline with Tween-80 98 % of control | [1] 93 % of control and 102 % of control | [2] 92 % of control and 104 % of control | dose: 360.0 mg/kg/injection, schedule: Q01DX005 (ip), vehicle: saline with Tween-80 96 % of control and 98 % of control | [3] 105 % of control and 110 % of control

O=C1C(=O)c2ccccc2C(O)=C1CC=C(Cl)Cl
inactive: dose: 4.0 mg/kg/injection, schedule: Q01DX005 (ip), vehicle: Klucel (hydroxypropylcellulose) (HPC) 102 % of control and 109 % of control | dose: 8.0 mg/kg/injection, schedule: Q01DX005 (ip), vehicle: Klucel (hydroxypropylcellulose) (HPC) 100 % of control and 122 % of control | dose: 16.0 mg/kg/injection, schedule: Q01DX005 (ip), vehicle: Klucel (hydroxypropylcellulose) (HPC) 104 % of control and 113 % of control | dose: 32.0 mg/kg/injection, schedule: Q01DX005 (ip), vehicle: Klucel (hydroxypropylcellulose) (HPC) 107 % of control and 108 % of control | dose: 64.0 mg/kg/injection, schedule: Q01DX005 (ip), vehicle: Klucel (hydroxypropylcellulose) (HPC) 101 % of control and 105 % of control

COS(C)(=O)=O
inactive: dose: 16.0 mg/kg/injection, schedule: Q01DX005 (ip), vehicle: saline 113 % of control

O=c1ccc2ccccc2o1
inactive: [1] 101 % of control | [2] 86 % of control | [3] 97 % of control

C(COCCOCC1CO1)OCCOCC1CO1 (centres undefined)
inactive: dose: 50.0 mg/kg/injection, schedule: Q01DX005 (ip), vehicle: saline with Tween-80 93 % of control | dose: 100.0 mg/kg/injection, schedule: Q01DX005 (ip), vehicle: saline with Tween-80 96 % of control | dose: 200.0 mg/kg/injection, schedule: Q01DX005 (ip), vehicle: saline with Tween-80 96 % of control | dose: 400.0 mg/kg/injection, schedule: Q01DX005 (ip), vehicle: saline with Tween-80 113 % of control

Cc1c2oc3c(C)ccc(C(=O)NC4C(=O)NC(C(C)C)C(=O)N5CCCC5C(=O)N(C)CC(=O)N(C)C(C(C)C)C(=O)OC4C)c3nc-2c(C(=O)NC2C(=O)NC(C(C)C)C(=O)N3CCC3C(=O)N(C)CC(=O)N(C)C(C(C)C)C(=O)OC2C)c(N)c1=O (centres undefined) (I: TV[Aze][Sar][NMeV] / II: TVP[Sar][NMeV]; ester I:1-I:C, II:1-II:C; linker I:N-II:N via Actinocin(1to9); configuration not given here)
inactive: dose: 12.5 micrograms/kg/injection, schedule: Q01DX005 (ip), vehicle: saline 110 % of control | dose: 25.0 micrograms/kg/injection, schedule: Q01DX005 (ip), vehicle: saline 107 % of control | dose: 50.0 micrograms/kg/injection, schedule: Q01DX005 (ip), vehicle: saline 101 % of control | dose: 100.0 micrograms/kg/injection, schedule: Q01DX005 (ip), vehicle: saline 111 % of control
